System: OCI-AML2 cells
Experiment: flow cytometry of apoptosis and live-dead cell staining
Assay type: cell-based, human
Conditions: OCI-AML2, 6 μM, 48 h

COc1ccc(C2=N[C@@H](c3ccc(Cl)cc3)[C@@H](c3ccc(Cl)cc3)N2C(=O)N2CCNC(=O)C2)c(OC(C)C)c1 [Nutlin-3]
apoptosis / sensitivity of OCI-AML2: significantly less sensitive

From PMC5889738 (Biomaterials, 2018)
